Measurements: patent publication US20260182569A1, “SMART BIOSTIMULANT DELIVERY FOR PLANT GROWTH AND DEVELOPMENT” (King Abdullah University of Science and Technology, priority 2022, published 2026)

Legend:
pepper fruits = test: LC-MS analysis of pepper fruits from field trial for MiZax-3; assay type: in vivo
3T3 cells = test: Cytotoxicity analysis, live-dead viability and CCK-8 assays; assay type: cell-based; details: viability after 24 hours
From the text: FIG. 10A illustrates a cytotoxicity analysis of precursor molecules, including Zn(NO3)2, 2-MIm, and MiZax-3, according to some embodiments. FIG. 10B illustrates a cytotoxicity analysis of ZIF-8 and ZIF-8@MiZax-3 complexes, according to some embodiments. Assessing the safety of this synthetic platform is critical. Accordingly, it is important to check if any of the materials or degraded building blocks are transferred from the rhizosphere to the actual fruit. For cytotoxicity analysis, live-dead viability and cell counting kit-8 (CCK-8) assays were performed according to the manufacturer's protocol. Briefly, 3T3 cells (1×10^4 cells per well) were seeded onto a 96-well plate. After 24 hours, cells were incubated with different concentrations (0.1, 0.5, 1, 5, 10, and 50 μg/mL) of ZIF-8 and ZIF-8 loaded with MiZax-3. In addition, to evaluate the cytotoxicity of the particles after degradation at low pH, 3T3 cells were incubated with Zn(NO3)2 and 2-MIm at concentrations of (0.01, 0.05, 0.1, 0.5, 1, 5, 10, and 50 μg/mL) and with MiZax-3 at (0.01, 0.05, 0.1, 0.5, 1, 5, 10, and 50 ng/mL). The cell viability was measured after 24 hours.

[1] = Thermal stability in amino acid media, PBS and HEPES, 45° C. for 24 hours (UV-vis); assay type: physicochemical; details: amino acid and buffer (PBS, HEPES) solutions
From the text: Organic matter is combined with more than 90% of the nitrogen sources present in the soil, with 20%-40% of this ratio in amino form. The amino acid (AA) composition of soil organic matter depends on several factors, for instance, pH, plant interaction with other microorganisms, environmental factors (e.g., temperature and CO2 levels), and chemical and nutrient composition. Thus, considering the complexity of using soil as substrates for plants as well as the mechanisms that these undergo during their growth stages, it is important to develop more resistant materials that remain stable under certain conditions. To test the stability of ZIF-8@MiZax-3, it was dissolved in a series of AA media and incubated it at 45° C. for 24 hours. Additionally, PBS and HEPES solutions were utilized to assess the thermal stability in biological and physiological conditions.
A set of samples were prepared as follows: Aspartic acid (5 mM), Glutamine (5 mM), Histidine (5 mM), PBS (1×), Asparagine (5 mM), Glutamic acid (5 mM), Alanine (5 mM), HEPES (10 mM), Mixture of amino acids (5 mM) all in 5 mL of PBS and 1 drop of ethanol. Subsequently, the samples were vortexed for 10 seconds and incubated at 45° C. for 24 hours. […]
A decrease in intensity around 283 nm wavelength and remarkable shifts in the absorbance maxima of MiZax-3 were readily observed after the incubation period. […]

[2] = tested on: Capsicum (C. annuum L. var. California Wonder); test: Capsicum field trial, growth and yield; assay type: in vivo
Experimental: FIG. 10C illustrates a schematic representation of the final product utilized for soil treatment, according to some embodiments. The final products included ZIF-8, MiZax-3, and ZIF-8@MiZax-3. These products were added to the sand/soil for the field experiment. FIG. 10D illustrates pictures of a field experiment utilizing ZIF-8@MiZax-3, according to some embodiments. Capsicum (C. annuum L. var. California Wonder) seedlings used for the field trial were initially germinated in soil and grown until the 4-week-old stage in a greenhouse under a semi-controlled environment adjusted to 28° C. (day)/26° C. (night) temperature, under 12 hours-light photoperiod with 60% humidity for nursery. During the nursery period, seedlings were given Hoagland solution to boost their growth before transferring to the field. The uniformly selected seedlings were transferred to the field during the winter season. The field used for the capsicum trial for testing ZIF-8, MiZax-3, and ZIF-8@MiZax-3 was divided into plots and treatments were allocated by following randomized complete block design (RCBD) with three replications as previously described. Each plot size was around 2 m×1.2 m with a planting distance of 50 cm×60 cm (8 plants/plot). After a week of acclimation, the first soil treatments were completed by mixing ZIF-8 (˜33.3 mg/L soil), MiZax-3 (˜1.38 mg/L soil), and ZIF-8@MiZax-3 (˜33.3 mg/L soil) directly on top of each plant stem on the soil surface. The treatments were repeated twice with a month gap in between. Plants were watered with a drip irrigation system twice a day, with an average of half a liter of water per individual. Plant phenotyping data were collected until 13 weeks after transplanting (13WAT) stage to the field. FIG. 11B illustrates a graph of the number of buds per individual at 4WAT, according to some embodiments. […] Two consecutive harvests were completed to compare the total fresh fruit yield harvested per total number of plants (n=24) between treatments and mock. The ZIF-8, MiZax-3 and ZIF-8@MiZax-3 treatments enhanced the total yield by 26.37%, 31.76% and 35.11%, respectively. […] In addition, zinc fertilizers can alter the microbial communities in the rhizosphere, which promotes plant growth and eventually increases yield.

[3] = fresh fruit, total number of plants n=24

COc1ccc(Oc2cccc(/C=C/C(C)=O)c2)cc1 [MiZax-3, (E)-4-(3-(4-methoxyphenoxy)phenyl) but-3-en-2-one]
MiZax-3 in pepper fruits of treated plants (pepper fruits): no detectible MiZax-3
Concentration up to which high biocompatibility was exhibited (3T3 cells): up to 50 ng/ml
Shift of UV-vis absorption after thermal incubation [1]: significant wavelength shifts up to 332 nm
Number of flower buds per individual ([2]; 4WAT): significantly higher number of flower buds compared to the mock and ZIF-8 treated seedlings
Plant height ([2]; 4WAT): significantly taller than mock and ZIF-8 treated plants
Average dry shoot biomass per individual plant ([2]; 13WAT, compared to mock, no statistically significant difference): upwards trend
Plant health (appearance) ([2]; 13WAT, versus mock): healthier than the mock plants
Average Total Fruit Number ([2]; capsicum field trial, soil treatment): 53.17
Harvest-1 [2, 3]: 4464.8 g
Harvest-2 [2, 3]: 5423.8 g
Yield Enhancement ([2]; total yield versus mock): 31.76%
Total Yield ([2]; two harvests, total number of plants n=24): 9888.6 g
